# Target: T1, human MRGPRX2 (Homo sapiens, UniProt Q96LB1)
# T1 construct: expressed in transfected cells; host or cells: CHO cells, stably transfected (G418 and Hygromycin B selection)
# T1 sequence (Q96LB1 1-330): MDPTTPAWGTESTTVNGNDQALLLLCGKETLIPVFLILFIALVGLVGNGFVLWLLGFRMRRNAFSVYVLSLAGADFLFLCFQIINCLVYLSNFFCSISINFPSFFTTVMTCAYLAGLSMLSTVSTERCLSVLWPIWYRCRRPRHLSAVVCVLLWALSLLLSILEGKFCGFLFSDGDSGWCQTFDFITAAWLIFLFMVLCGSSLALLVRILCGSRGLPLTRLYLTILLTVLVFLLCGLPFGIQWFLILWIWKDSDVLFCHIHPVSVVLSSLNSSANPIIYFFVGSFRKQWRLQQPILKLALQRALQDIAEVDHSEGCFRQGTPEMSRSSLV
# Experiment: MRGPRX2 activity: IP-One Gq HTRF assay in CHO cells, antagonism versus 0.3 uM Cortistatin-14
# Assay type: cell-based
# Details: versus 0.3 uM Cortistatin-14 agonist, CHO cells expressing human MRGPRX2, read-out: MRGPRX2 Antagonist Activity
# In short: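 CHO cells stably expressing human MRGPRX2 were treated with a 10-point compound curve (30 uM top, 1:3) plus 0.3 μM Cortistatin-14 in LiCl-containing Tris buffer, pH 8. Incubation was 1 h at 37 °C then 1 h at room temperature; IP-1 was detected by HTRF and IC50 came from the HTRF ratio.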
row,IC50 [µM],Compound
1,< 0.1,"O=S1(=O)N=C(NCc2cccc(Cl)c2)Nc2c(Cc3ccccc3Cl)cccc21 [Compound 12-16, 5-(2-chlorobenzyl)-3-((3-chlorobenzyl)amino)-4H-benzo[e][1,2,4]thiadiazine 1,1-dioxide]"
2,< 0.1,"Cc1ccc(C(C)c2c(F)ccc3c2NC(NCc2cccc(F)c2)=NS3(=O)=O)cn1 (centres unmarked) [Compound 22-24, 6-fluoro-3-((3-fluorobenzyl)amino)-5-(1-(6-methylpyridin-3-yl)ethyl)-4H-benzo[e][1,2,4]thiadiazine 1,1-dioxide]"
3,> 2.5,"CC(C)c1ccc(NC2=NS(=O)(=O)c3cc(F)c(F)c(Cc4ccccc4Cl)c3N2)cc1 [Compound 4-15, 5-(2-chlorobenzyl)-6,7-difluoro-3-((4-isopropylphenyl)amino)-4H-benzo[e][1,2,4]thiadiazine 1,1-dioxide]"
4,< 0.1,"Cc1c(F)cccc1CNC1=NS(=O)(=O)c2ccc(F)c(C(C)c3cccc(F)c3Cl)c2N1 (centres unmarked) [Compound 7-2, 5-(1-(2-chloro-3-fluorophenyl)ethyl)-6-fluoro-3-((3-fluoro-2-methylbenzyl)amino)-4H-benzo[e][1,2,4]thiadiazine 1,1-dioxide]"
5,0.501 to 1,"O=S1(=O)N=C(NCc2ncccc2F)Nc2c1cc(Cl)c(F)c2Oc1ccccc1Cl [Compound 1-47, 7-chloro-5-(2-chlorophenoxy)-6-fluoro-3-(((3-fluoropyridin-2-yl)methyl)amino)-4H-benzo[e][1,2,4]thiadiazine 1,1-dioxide]"
6,> 2.5,"O=S1(=O)N=C(NCc2ncccc2O)Nc2c1cc(F)c(F)c2Cc1ccccc1Cl [Compound 4-18, 5-(2-chlorobenzyl)-6,7-difluoro-3-(((3-hydroxypyridin-2-yl)methyl)amino)-4H-benzo[e][1,2,4]thiadiazine 1,1-dioxide]"
7,> 2.5,"C[C@@H](NC1=NS(=O)(=O)c2ccc(F)c(Oc3ccccc3Cl)c2N1)c1ccccc1F [Compound 2-3, (R)-5-(2-chlorophenoxy)-6-fluoro-3-((1-(2-fluorophenyl)ethyl)amino)-4H-benzo[e][1,2,4]thiadiazine 1,1-dioxide]"
8,< 0.1,"O=S1(=O)N=C(NCc2ccccc2Cl)Nc2c(Cc3ccccc3Cl)cccc21 [Compound 12-1, 5-(2-chlorobenzyl)-3-((2-chlorobenzyl)amino)-4H-benzo[e][1,2,4]thiadiazine 1,1-dioxide]"
9,0.1 to 0.5,"O=C(c1ccccc1Cl)c1cccc2c1NC(NCc1ncccc1F)=NS2(=O)=O [Compound 16-5, (2-chlorophenyl)(3-(((3-fluoropyridin-2-yl)methyl)amino)-1,1-dioxido-4H-benzo[e][1,2,4]thiadiazin-5-yl)methanone]"
10,0.1 to 0.5,"O=S1(=O)N=C(NCc2cccnc2F)Nc2c1ccc(F)c2Oc1ccccc1Cl [Compound 2-5, 5-(2-chlorophenoxy)-6-fluoro-3-(((2-fluoropyridin-3-yl)methyl)amino)-4H-benzo[e][1,2,4]thiadiazine 1,1-dioxide]"
11,< 0.1,"CC(c1nccs1)c1c(F)ccc2c1NC(NCc1cccc(F)c1)=NS2(=O)=O (centres unmarked) [Compound 22-11, 6-fluoro-3-((3-fluorobenzyl)amino)-5-(1-(thiazol-2-yl)ethyl)-4H-benzo[e][1,2,4]thiadiazine 1,1-dioxide]"
12,< 0.1,"Cc1cccc(Cc2cccc3c2NC(NCc2ccccc2F)=NS3(=O)=O)c1 [Compound 6-10, 3-((2-fluorobenzyl)amino)-5-(3-methylbenzyl)-4H-benzo[e][1,2,4]thiadiazine 1,1-dioxide]"
13,< 0.1,"O=S1(=O)N=C(NCc2ccccc2C(F)(F)F)Nc2c1ccc(F)c2Oc1ccccc1Cl [Compound 1-27, 5-(2-chlorophenoxy)-6-fluoro-3-((2-(trifluoromethyl)benzyl)amino)-4H-benzo[e][1,2,4]thiadiazine 1,1-dioxide]"
14,0.1 to 0.5,"O=S1(=O)N=C(NCc2ncccc2F)Nc2c1ccc(F)c2Oc1cccc(Cl)c1 [Compound 2-10, 5-(3-chlorophenoxy)-6-fluoro-3-(((3-fluoropyridin-2-yl)methyl)amino)-4H-benzo[e][1,2,4]thiadiazine 1,1-dioxide]"
15,< 0.1,"Cc1ccc(CNC2=NS(=O)(=O)c3cccc(Cc4ccccc4Cl)c3N2)cc1C [Compound 12-13, 5-(2-chlorobenzyl)-3-((3,4-dimethylbenzyl)amino)-4H-benzo[e][1,2,4]thiadiazine 1,1-dioxide]"
16,< 0.1,"O=S1(=O)N=C(NCc2ncc(F)cc2F)Nc2c(Cc3ccccc3Cl)cccc21 [Compound 12-10, 5-(2-chlorobenzyl)-3-(((3,5-difluoropyridin-2-yl)methyl)amino)-4H-benzo[e][1,2,4]thiadiazine 1,1-dioxide]"

row,IC50 [µM],Compound
1,< 0.1,"O=S1(=O)N=C(NCc2ccccc2F)Nc2c1ccc(F)c2Oc1ccccc1Cl [Compound 1-2, 5-(2-chlorophenoxy)-6-fluoro-3-((2-fluorobenzyl)amino)-4H-benzo[e][1,2,4]thiadiazine 1,1-dioxide]"
2,< 0.1,"CC(c1c(F)ccc2c1NC(NCc1cccc(F)c1)=NS2(=O)=O)C1CCCCC1 (centres unmarked) [Compound 22-5, 5-(1-cyclohexylethyl)-6-fluoro-3-((3-fluorobenzyl)amino)-4H-benzo[e][1,2,4]thiadiazine 1,1-dioxide]"
3,< 0.1,"Cc1c(F)cccc1CNC1=NS(=O)(=O)c2ccc(F)c(C(C)c3cccc(Cl)c3Cl)c2N1 (centres unmarked) [Compound 8-3, 5-(1-(2,3-dichlorophenyl)ethyl)-6-fluoro-3-((3-fluoro-2-methylbenzyl)amino)-4H-benzo[e][1,2,4]thiadiazine 1,1-dioxide]"
4,0.501 to 1,"O=S1(=O)N=C(Nc2ccc(F)cc2)Nc2c1cc(F)c(F)c2Cc1ccccc1Cl [Compound 4-19, 5-(2-chlorobenzyl)-6,7-difluoro-3-((4-fluorophenyl)amino)-4H-benzo[e][1,2,4]thiadiazine 1,1-dioxide]"
5,< 0.1,"O=S1(=O)N=C(NCc2cnccc2C(F)(F)F)Nc2c(Cc3ccccc3Cl)cccc21 [Compound 12-30, 5-(2-chlorobenzyl)-3-(((4-(trifluoromethyl)pyridin-3-yl)methyl)amino)-4H-benzo[e][1,2,4]thiadiazine 1,1-dioxide]"
6,< 0.1,"O=S1(=O)N=C(NCc2cccc(Cl)c2F)Nc2c1ccc(F)c2Cc1ccccc1Cl [Compound 4-3, 3-((3-chloro-2-fluorobenzyl)amino)-5-(2-chlorobenzyl)-6-fluoro-4H-benzo[e][1,2,4]thiadiazine 1,1-dioxide]"
7,< 0.1,"CC(c1ccc(F)c(C#N)c1)c1c(F)ccc2c1NC(NCc1cccc(F)c1)=NS2(=O)=O (centres unmarked) [Compound 22-27, 2-fluoro-5-(1-(6-fluoro-3-((3-fluorobenzyl)amino)-1,1-dioxido-4H-benzo[e][1,2,4]thiadiazin-5-yl)ethyl)benzonitrile]"
8,< 0.1,"C[C@H](c1ccccc1F)c1c(F)ccc2c1NC(NCc1ccc(F)cc1F)=NS2(=O)=O [Compound 24-2, (R)-3-((2,4-difluorobenzyl)amino)-6-fluoro-5-(1-(2-fluorophenyl)ethyl)-4H-benzo[e][1,2,4]thiadiazine 1,1-dioxide]"
9,< 0.1,"Cc1ccccc1C(C)c1c(F)ccc2c1NC(NCc1cccc(F)c1)=NS2(=O)=O (centres unmarked) [Compound 22-2, 6-fluoro-3-((3-fluorobenzyl)amino)-5-(1-(o-tolyl)ethyl)-4H-benzo[e][1,2,4]thiadiazine 1,1-dioxide]"
10,< 0.1,"CC(c1ccccc1)c1c(F)ccc2c1NC(NCc1cccc(F)c1)=NS2(=O)=O (centres unmarked) [Compound 22-1, 6-fluoro-3-((3-fluorobenzyl)amino)-5-(1-phenylethyl)-4H-benzo[e][1,2,4]thiadiazine 1,1-dioxide]"
11,< 0.1,"O=S1(=O)N=C(NCc2cccnc2C(F)(F)F)Nc2c(Cc3ccccc3Cl)cccc21 [Compound 12-31, 5-(2-chlorobenzyl)-3-(((2-(trifluoromethyl)pyridin-3-yl)methyl)amino)-4H-benzo[e][1,2,4]thiadiazine 1,1-dioxide]"
12,< 0.1,"O=S1(=O)N=C(NCc2ccc(F)c(F)c2)Nc2c(Cc3ccccc3Cl)cccc21 [Compound 12-14, 5-(2-chlorobenzyl)-3-((3,4-difluorobenzyl)amino)-4H-benzo[e][1,2,4]thiadiazine 1,1-dioxide]"
13,< 0.1,"C=C(c1ccccc1F)c1c(F)ccc2c1NC(NCc1ncccc1F)=NS2(=O)=O [Compound 13-3, 6-fluoro-5-(1-(2-fluorophenyl)vinyl)-3-(((3-fluoropyridin-2-yl)methyl)amino)-4H-benzo[e][1,2,4]thiadiazine 1,1-dioxide]"
14,1 to 2.5,"COc1ccc(F)c(CNC2=NS(=O)(=O)c3ccc(F)c(Oc4ccccc4Cl)c3N2)c1 [Compound 1-20, 5-(2-chlorophenoxy)-6-fluoro-3-((2-fluoro-5-methoxybenzyl)amino)-4H-benzo[e][1,2,4]thiadiazine 1,1-dioxide]"
15,0.1 to 0.5,"CC(c1cccc(N(C)C)c1)c1c(F)ccc2c1NC(NCc1cccc(F)c1)=NS2(=O)=O (centres unmarked) [Compound 22-23, 5-(1-(3-(dimethylamino)phenyl)ethyl)-6-fluoro-3-((3-fluorobenzyl)amino)-4H-benzo[e][1,2,4]thiadiazine 1,1-dioxide]"
16,< 0.1,"O=S1(=O)N=C(NCc2ncccc2C(F)(F)F)Nc2c(Cc3ccccc3Cl)cccc21 [Compound 12-29, 5-(2-chlorobenzyl)-3-(((3-(trifluoromethyl)pyridin-2-yl)methyl)amino)-4H-benzo[e][1,2,4]thiadiazine 1,1-dioxide]"
